# Experimental data: PubChem BioAssay AID2060616 (Molecular Pharmacology Branch, DTP, NCI, 2025)
# Values joined by “and” are separate entries in the source; they are usually repeats but may differ in a detail not shown here. Equal entries are not always repeated.
# Test system: 377384-186-R-J1-PDC complex spheroid viability
# Assay: Anticancer human tumor 377384-186-R-J1-PDC patient-derived pancreatic carcinoma cell line growth inhibition [CLK]
# Conditions: for viability, T/C: stronger effect = lower value
# Summary of the method: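 Patient-derived tumor cells grown as complex spheroids with HUVEC endothelial cells and mesenchymal stem cells, treated with drug combinations. Concentrations descend in half-log steps from near clinical Cmax, or from 10 microM if Cmax unknown.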
# [1] = curve of first compound, second compound 0.0316 µM
# [2] = curve of first compound, second compound 0.1 µM
# [3] = curve of first compound, second compound 0.316 µM
# [4] = curve of first compound, second compound 1 µM
# [5] = curve of first compound, second compound 3.16 µM
# [6] = curve of first compound, second compound 10 µM
# 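Note: spheroids exposed to agents for 7 days before reading.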
# 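Throughout, for viability, T/C: luminescence signal used as a stand-in for viable cells.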
smiles,measurement,setting,value
NC(=O)C(=Cn1cnc(-c2cc(C(F)(F)F)cc(C(F)(F)F)c2)n1)c1cncnc1 + CNC(=O)c1ccc(Nc2nc(OC3CCCC3)c3c(-c4ccc5nc(C)oc5c4)c[nH]c3n2)c(OC)c1,IC50,[1],52.6 nM
same,IC50,[2],12.3 nM
same,IC50,[3],< 9.49 nM
same,IC50,[4],< 9.49 nM
same,IC50,[5],< 9.49 nM
same,IC50,[6],< 9.49 nM
same,"viability, T/C","second compound 0.0316 µM, first compound 0.00949 µM",97.1%
same,"viability, T/C","second compound 0.0316 µM, first compound 0.03 µM",59.2%
same,"viability, T/C","second compound 0.0316 µM, first compound 0.0949 µM",40.4%
same,"viability, T/C","second compound 0.0316 µM, first compound 0.3 µM",21.2%
same,"viability, T/C","second compound 0.0316 µM, first compound 0.949 µM",5.59%
same,"viability, T/C","second compound 0.0316 µM, first compound 3 µM",2.3%
same,"viability, T/C","second compound 0.1 µM, first compound 0.00949 µM",52.9%
same,"viability, T/C","second compound 0.1 µM, first compound 0.03 µM",39.7%
same,"viability, T/C","second compound 0.1 µM, first compound 0.0949 µM",25.5%
same,"viability, T/C","second compound 0.1 µM, first compound 0.3 µM",16.1%
same,"viability, T/C","second compound 0.1 µM, first compound 0.949 µM",3.56%
same,"viability, T/C","second compound 0.1 µM, first compound 3 µM",1.95%
same,"viability, T/C","second compound 0.316 µM, first compound 0.00949 µM",19.2%
same,"viability, T/C","second compound 0.316 µM, first compound 0.03 µM",17.7%
same,"viability, T/C","second compound 0.316 µM, first compound 0.0949 µM",17.1%
same,"viability, T/C","second compound 0.316 µM, first compound 0.3 µM",8.59%
same,"viability, T/C","second compound 0.316 µM, first compound 0.949 µM",2.04%
same,"viability, T/C","second compound 0.316 µM, first compound 3 µM",2.27%
same,"viability, T/C","second compound 1 µM, first compound 0.00949 µM",18.9%
same,"viability, T/C","second compound 1 µM, first compound 0.03 µM",20.9%
same,"viability, T/C","second compound 1 µM, first compound 0.0949 µM",16.2%
same,"viability, T/C","second compound 1 µM, first compound 0.3 µM",7.4%
same,"viability, T/C","second compound 1 µM, first compound 0.949 µM",1.54%
same,"viability, T/C","second compound 1 µM, first compound 3 µM",0.93%
same,"viability, T/C","second compound 3.16 µM, first compound 0.00949 µM",18.7%
same,"viability, T/C","second compound 3.16 µM, first compound 0.03 µM",18.7%
same,"viability, T/C","second compound 3.16 µM, first compound 0.0949 µM",15.5%
same,"viability, T/C","second compound 3.16 µM, first compound 0.3 µM",6.58%
same,"viability, T/C","second compound 3.16 µM, first compound 0.949 µM",1.89%
same,"viability, T/C","second compound 3.16 µM, first compound 3 µM",1.09%
same,"viability, T/C","second compound 10 µM, first compound 0.00949 µM",21.7%
same,"viability, T/C","second compound 10 µM, first compound 0.03 µM",17.9%
same,"viability, T/C","second compound 10 µM, first compound 0.0949 µM",12.8%
same,"viability, T/C","second compound 10 µM, first compound 0.3 µM",6.06%
same,"viability, T/C","second compound 10 µM, first compound 0.949 µM",1.42%
same,"viability, T/C","second compound 10 µM, first compound 3 µM",1.91%
O=C(c1cc(Cc2n[nH]c(=O)c3ccccc23)ccc1F)N1CCN(C(=O)C2CC2)CC1 + CNC(=O)c1ccc(Nc2nc(OC3CCCC3)c3c(-c4ccc5nc(C)oc5c4)c[nH]c3n2)c(OC)c1,IC50,[1],6380 nM
same,IC50,[2],991 nM
same,IC50,[3],< 31.6 nM
same,IC50,[4],< 31.6 nM
same,IC50,[5],< 31.6 nM
same,IC50,[6],< 31.6 nM
same,"viability, T/C","second compound 0.0316 µM, first compound 0.0316 µM",83.7%
same,"viability, T/C","second compound 0.0316 µM, first compound 0.1 µM",84.7%
same,"viability, T/C","second compound 0.0316 µM, first compound 0.316 µM",78.9%
same,"viability, T/C","second compound 0.0316 µM, first compound 1 µM",75.9%
same,"viability, T/C","second compound 0.0316 µM, first compound 3.16 µM",64.9%
same,"viability, T/C","second compound 0.0316 µM, first compound 10 µM",40.3%
same,"viability, T/C","second compound 0.1 µM, first compound 0.0316 µM",52.1%
same,"viability, T/C","second compound 0.1 µM, first compound 0.1 µM",50.2%
same,"viability, T/C","second compound 0.1 µM, first compound 0.316 µM",57%
same,"viability, T/C","second compound 0.1 µM, first compound 1 µM",49%
same,"viability, T/C","second compound 0.1 µM, first compound 3.16 µM",38.3%
same,"viability, T/C","second compound 0.1 µM, first compound 10 µM",29.7%
same,"viability, T/C","second compound 0.316 µM, first compound 0.0316 µM",22.3%
same,"viability, T/C","second compound 0.316 µM, first compound 0.1 µM",17.4%
same,"viability, T/C","second compound 0.316 µM, first compound 0.316 µM",20.7%
same,"viability, T/C","second compound 0.316 µM, first compound 1 µM",17.8%
same,"viability, T/C","second compound 0.316 µM, first compound 3.16 µM",15.3%
same,"viability, T/C","second compound 0.316 µM, first compound 10 µM",17.5%
same,"viability, T/C","second compound 1 µM, first compound 0.0316 µM",23.3%
same,"viability, T/C","second compound 1 µM, first compound 0.1 µM",18.6%
same,"viability, T/C","second compound 1 µM, first compound 0.316 µM",17.9%
same,"viability, T/C","second compound 1 µM, first compound 1 µM",21.3%
same,"viability, T/C","second compound 1 µM, first compound 3.16 µM",20%
same,"viability, T/C","second compound 1 µM, first compound 10 µM",17.4%
same,"viability, T/C","second compound 3.16 µM, first compound 0.0316 µM",19.6%
same,"viability, T/C","second compound 3.16 µM, first compound 0.1 µM",21.1%
same,"viability, T/C","second compound 3.16 µM, first compound 0.316 µM",22.2%
same,"viability, T/C","second compound 3.16 µM, first compound 1 µM",19.4%
same,"viability, T/C","second compound 3.16 µM, first compound 3.16 µM",22%
same,"viability, T/C","second compound 3.16 µM, first compound 10 µM",18.4%
same,"viability, T/C","second compound 10 µM, first compound 0.0316 µM",18.7%
same,"viability, T/C","second compound 10 µM, first compound 0.1 µM",19.8%
same,"viability, T/C","second compound 10 µM, first compound 0.316 µM",21.8%
same,"viability, T/C","second compound 10 µM, first compound 1 µM",19.8%
same,"viability, T/C","second compound 10 µM, first compound 3.16 µM",18.9%
same,"viability, T/C","second compound 10 µM, first compound 10 µM",15.2%
COC1C=CCC(C)C(C)S(=O)(=O)NC(=O)c2ccc3c(c2)N(CC2CCC21)CC1(CCCc2cc(Cl)ccc21)CO3 (stereo unspecified),"viability, T/C",compound 0.0316 µM,88.4% and 110%
same,"viability, T/C",compound 0.1 µM,101% and 94.2%
same,"viability, T/C",compound 0.316 µM,82% and 79%
same,"viability, T/C",compound 1 µM,96.1% and 69.6%
same,"viability, T/C",compound 3.16 µM,65.8% and 61.7%
same,"viability, T/C",compound 10 µM,11.2% and 20.1%
same,IC50,curve of compound,4410 nM and 3370 nM
